In PubChem BioAssay (NCI):
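Exposure lasted 48 hours, with cells grown in 96-well plates and compounds tested at five concentrations. TGI denotes the concentration required for complete inhibition of growth.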

What was measured:
Assay in all cases: NCI tumour cell line growth inhibition, 48 h
DMS 273 small cell lung = tested on: DMS 273 small cell lung
LXFL 529 NSCLC = tested on: LXFL 529 NSCLC
SK-MEL-2 melanoma = tested on: SK-MEL-2 melanoma
KM12 colon = tested on: KM12 colon
M19-MEL melanoma = tested on: M19-MEL melanoma
ACHN renal = tested on: ACHN renal
DLD-1 colon = tested on: DLD-1 colon
SNB-78 CNS = tested on: SNB-78 CNS
HOP-18 NSCLC = tested on: HOP-18 NSCLC
UACC-257 melanoma = tested on: UACC-257 melanoma
TK-10 renal = tested on: TK-10 renal
XF 498 CNS = tested on: XF 498 CNS
KM20L2 colon = tested on: KM20L2 colon
HCT-116 colon = tested on: HCT-116 colon
SR leukemia = tested on: SR leukemia
SF-539 CNS = tested on: SF-539 CNS
HOP-62 NSCLC = tested on: HOP-62 NSCLC
HOP-92 NSCLC = tested on: HOP-92 NSCLC
MCF7 breast = tested on: MCF7 breast
P388 leukemia = tested on: P388 leukemia

Compound	TGI (DMS 273 small cell lung) [µM]	TGI (LXFL 529 NSCLC) [µM]	TGI (SK-MEL-2 melanoma) [µM]	TGI (KM12 colon) [µM]	TGI (M19-MEL melanoma) [µM]	TGI (ACHN renal) [µM]	TGI (DLD-1 colon) [µM]	TGI (SNB-78 CNS) [µM]	TGI (HOP-18 NSCLC) [µM]	TGI (UACC-257 melanoma) [µM]	TGI (TK-10 renal) [µM]	TGI (XF 498 CNS) [µM]	TGI (KM20L2 colon) [µM]	TGI (HCT-116 colon) [µM]	TGI (SR leukemia) [µM]	TGI (SF-539 CNS) [µM]	TGI (HOP-62 NSCLC) [µM]	TGI (HOP-92 NSCLC) [µM]	TGI (MCF7 breast) [µM]	TGI (P388 leukemia) [µM]
O=C1OC(c2ccc(Cl)cc2)(c2ccc(Cl)cc2)c2c1ccc1ccccc21	> 100	> 100	> 100	> 100	> 100	> 100	> 100	> 100	> 100	> 100	> 100	> 100	> 100							
COc1ccc(/C=N/n2cnc3c(c2=O)S/C(=C2/SC(=S)N(c4ccc(C)cc4)C2=O)N3c2ccccc2)cc1	> 100	> 100	> 100	> 100	> 100	> 100					> 100		> 100	> 100	> 100	> 100	70.9	> 100		
COc1ccc(/C(Cl)=C(\C=O)c2ccccc2)cc1OC	> 100	55.1	> 100		> 100	> 100	> 100	> 100	> 100	> 100	> 100		> 100	> 100	> 100	> 100	81.8			
CCOC(=O)C1=NN(c2ccc(Cl)cc2)C2=CC(C)=NN(C)C(=S)N21				> 100		> 100				> 100	62			> 100	> 100	56.5		> 100		
N/C(=N\N=C\c1cc2c(cc1Cl)OCO2)NO	> 77.8		> 88.3	> 100	> 100		> 100	> 100	> 100	> 100		> 34.2	> 100	> 100		> 95.6	> 100	> 95.1	> 100	> 91.9
C=CC[N+](CCO)(CCO)CCCCCCCCCCCCCCCCCC	5.83		32.7	3.58	11.9		30.2	12.6	21.3	17.2			17.1	14.7		13.1	27.3	3.91	> 44.8	1.21
